Assay results taken from US6479657B1, “Crystalline 1-kestose and process for preparing the same” (Meiji Seika Kaisha, Ltd., priority 1995, dated 2002).

How the values were obtained:
[1] = test system: enzyme having fructose transferase activity derived from a Scopulariopsis microorganism; experiment: Properties of the novel Scopulariopsis enzyme: substrate specificity, inhibition, kinetics; type: biochemical, Scopulariopsis brevicaulis
Procedure: In the case of an enzyme derived from a Scopulariopsis microorganism, the quantity of enzyme which can produce 1 μmol of 1-kestose in 1 minute at 40° C., pH 7.0, and a substrate (sucrose) concentration of 10 wt %.
The enzyme is prepared from a Scopulariopsis microorganism, preferably from Scopulariopsis brevicaulis, specifically Scopulariopsis brevicaulis IF04843 strain.
The enzyme can be recovered from a culture by incubating the microorganism in a suitable medium (e.g., a medium containing 3.0 to 10.0% of sucrose, 5 to 15% of corn steep liquor, 0.05 to 0.3% of urea, 0.2 to 3.0 of potassium dihydrogenphosphate, and 0.01 to 0.1% of magnesium sulfate heptahydrate), at initial pH of 6.5 to 7.5 and a temperature of 20 to 30° C. for 3 to 8 days. The enzyme is prepared preferably by recovering the fungus body from the culture using a centrifuge such as a basket type; suspending the recovered fungus body in a buffer at pH 7.0; obtaining a crude enzyme suspension by an ultrasonic treatment and a membrane treatment; then treating with anion exchange, gel filtration, chromatographic focusing, or other procedure on the crude enzyme suspension.
The freeze-dried fungus body powder prepared above was suspended in a McIlvaine buffer (pH 7.0), and ultrasonically crushed. The crushed cells were ultrafiltrated through a membrane filter (cutoff molecular weight: 100,000).

[2] = Decomposition of 1-kestose in the decolorizing and desalting procedure; type: physicochemical; conditions: activated carbon at 60° C. for 20 minutes, cation and anion exchange resin
Procedure: (§1) The deactivated solution was filtered to remove any impurities such as the fungus body and the activated carbon. Then, activated carbon (Taiko activated carbon S-W50) was added to the filtrate at a rate of 0.5% of the solids content, and stirred at a temperature of 60° C. for 20 minutes to decolorize again. After filtrating to remove the activated carbon in the same manner as above, the solution was desalted through cation and anion exchange resin, then filtrated again to make a colorless and transparent 1-kestose solution (chromatographic sample).
as §1, with “per” for “of the”
The deactivated solution was filtered to remove any impurities such as the fungus body and the activated carbon. […]

[3] = test system: enzyme having fructose transferase activity derived from a Penicillium microorganism; experiment: Properties of the novel Penicillium enzyme: substrate specificity, inhibition, kinetics; type: biochemical, Penicillium roqueforti
Procedure: In the case of an enzyme derived from a Penicillium microorganism, the quantity of enzyme which can produce 1 μmol of 1-kestose in 1 minute at 50° C., pH 7.0, and a substrate (sucrose) concentration of 10 wt %; and The enzyme is prepared from a Penicillium microorganism, preferably from Penicillium roqueforti, specifically Penicillium roqueforti IAM7254 strain. The enzyme can be recovered from a culture by incubating the microorganism in a suitable medium (e.g., a medium containing 5 to 30% of sucrose, 1 to 10% of corn steep liquor, 0.05 to 0.3% of urea, 0.2 to 3.0 of potassium dihydrogenphosphate, and 0.01 to 0.1% of magnesium sulfate heptahydrate), at initial pH of 6.5 to 7.5 and a temperature of 25 to 30° C. for 2 to 5 days.

| SMILES | Substrate specificity (enzyme acts on sugar) [1] | decomposition of 1-kestose [2] | Substrate specificity (enzyme acts on sugar) [3] |
| --- | --- | --- | --- |
| OC[C@H]1O[C@@](CO)(OC[C@@]2(O[C@H]3O[C@H](CO)[C@@H](O)[C@H](O)[C@H]3O)O[C@H](CO)[C@@H](O)[C@@H]2O)[C@@H](O)[C@@H]1O [Example 1-kestose, 1-kestose] | effectively acts on | hardly observed | effectively acts on |
| O=C(CO)[C@@H](O[C@H]1O[C@H](CO)[C@@H](O)[C@H](O)[C@H]1O)[C@H](O)[C@H](O)CO [turanose] | not on | – | not on |
| OC[C@H]1O[C@H](OC[C@H]2O[C@H](O[C@]3(CO)O[C@H](CO)[C@@H](O)[C@@H]3O)[C@H](O)[C@@H](O)[C@@H]2O)[C@H](O)[C@@H](O)[C@H]1O [raffinose] | effectively acts on | – | effectively acts on |
| OC[C@H]1O[C@@](CO)(O[C@H]2O[C@H](CO)[C@@H](O)[C@H](O)[C@H]2O)[C@@H](O)[C@@H]1O [sucrose] | effectively acts on | – | effectively acts on |
| OC[C@H]1O[C@H](O[C@H]2[C@H](O)[C@@H](O)C(O)O[C@@H]2CO)[C@H](O)[C@@H](O)[C@@H]1O (mixture of isomers) [maltose] | not on | – | not on |
